Converted amounts (≈) assume the structure as drawn. Like-named read-outs stand apart in the source and are kept apart here. Where a SMILES comes first, the peptide text is derived from it.
Legend:
MRSA USA300 = assay: microbe, parasite or virus in culture
Experimental: MRSA USA300 bacteria from −80 °C freezer stock were cultured on an LB agar plate overnight. One bacteria colony was added to a 6 mL fresh MHB with constant shaking at 200 rpm at 37 °C. The bacteria were transferred daily by inoculating 10 μL of stationary-phase culture into […] of MHB in a 1 mL cap-clipped Eppendorf tube. Then, 20 μL of bacteria aliquot was added to […] of MHB broth, with or without [R4W4], at a final concentration of the MIC overnight in an […] at 37 °C for five transfers. […] […] Experiments were performed in triplicates. Every time we increased the concentration of [R4W4], a sample of the induction generation was inoculated into 20% (vol/vol) glycerol and stored at −70 °C. The final MIC values of [R4W4], vancomycin, and levofloxacin were determined by modified microbroth dilution assay.

B. subtilis 21332 = assay: microbe, parasite or virus in culture; type: cell-based, Bacillus subtilis
Experimental: (§1) To determine whether the antibacterial activity of [R4W4] is bacteriostatic or bactericidal against clinical isolates of multidrug-resistant bacterial isolates, MIC and MBC were determined using the microbroth dilution method. Bacteriostatic activity was defined as a ratio of the MBC/MIC greater than four and bactericidal activity as MBC/MIC ratio ≤ 4 [33]. We added aliquots of test samples (256 μg/mL concentration of [R4W4] or vancomycin as a control prepared in TSB) to the first well of microplates. MHB media was added to the remaining wells. Two-fold serial dilutions were performed, starting with the highest drug concentration in well 1, and the dilution process continued. A bacterial aliquot of 1/150 dilution was prepared with a 0.5 McFarland standard solution from an overnight culture of the tested bacteria isolate. Bacteria were added to the microplate and placed into wells with the drug dilutions. The microplates were incubated overnight for 24 h at 37 °C. [R4W4] was synthesized and purified, as reported earlier.

MRSA LAC [1] = conditions: for % Reduction in viable bacteria / Lethal rate (LR), log10 reduction: MRSA LAC in MHB
Experimental: The MRSA Los Angeles County (LAC) USA300 strain was cultured from −80 °C freezer stock and inoculated on an agar plate overnight. Two bacteria colonies were inoculated in MH broth overnight at 37 °C with shaking at 200 rpm. An aliquot was added to normal saline to achieve a 0.5 McFarland Standard suspension and then diluted 1:150 with MHB. The bacteria sample was plated on an agar plate at time zero. The test samples were prepared by adding [R4W4] or vancomycin to bacteria to achieve the final sample concentration of (1 × MIC, 2 × MIC, 4 × MIC) using media without antibacterial agents as positive control.
[…] The samples were diluted to minimize excessive CFU counts. The inoculated plates were incubated at 37 °C overnight. The surviving organisms were determined by counting colonies as CFU/plate. The average duplicate counts were multiplied by the dilution factors to arrive at CFU/mL. The microbial reduction was calculated by converting the count to log10 scale. The Log CFU/mL was plotted against time for different antibacterial concentrations.

MRSA LAC [2] = assay: microbe, parasite or virus in culture; type: cell-based, Staphylococcus aureus
Experimental: The effects of cations on the antimicrobial activity of [R4W4] were determined against MRSA using vancomycin as a control. The bacteria aliquots were treated with MHB media containing the final concentration of sodium chloride (NaCl) (150, 75, 37.5, and 18.75 mM), calcium chloride (CaCl2) (8, 4, 2, and 1 mM), and ferric chloride (FeCl3) (1, 4, and 8 µM) in 96 well microplates. The MIC of [R4W4] and vancomycin were determined to determine whether there were changes in the MIC values when treated with different salt concentrations.

[3] = test system: Enterococcus faecium (VRE); type: cell-based; conditions: urine isolate
Experimental: as §1

[4] = test system: bacterial isolates (nine MRSA, B. subtilis, C. difficile, VRE); type: cell-based
Experimental: as §1

MRSA Mec III = assay: microbe, parasite or virus in culture; type: cell-based, Staphylococcus aureus
Experimental: as §1

MRSA Clin 5 = assay: microbe, parasite or virus in culture; type: cell-based, Staphylococcus aureus
Experimental: as §1

MRSA Mec IV = assay: microbe, parasite or virus in culture; type: cell-based, Staphylococcus aureus
Experimental: as §1

MRSA Mec V = assay: microbe, parasite or virus in culture; type: cell-based, Staphylococcus aureus
Experimental: as §1

MRSA Clin 6 = assay: microbe, parasite or virus in culture; type: cell-based, Staphylococcus aureus
Experimental: as §1

[5] = test system: MRSA (vancomycin hetero-non-susceptible) MU3; assay: microbe, parasite or virus in culture; type: cell-based, Staphylococcus aureus
Experimental: as §1

MRSA Mec II = assay: microbe, parasite or virus in culture; type: cell-based, Staphylococcus aureus
Experimental: as §1

MRSA LAC [6] = assay: microbe, parasite or virus in culture; type: cell-based, Staphylococcus aureus; remark: listed apart in the source
Experimental: as §1

MRSA Mec 1 = assay: microbe, parasite or virus in culture; type: cell-based, Staphylococcus aureus
Experimental: as §1

N=C(N)NCCC[C@@H]1NC(=O)[C@H](CCCNC(=N)N)NC(=O)[C@H](CCCNC(=N)N)NC(=O)[C@H](Cc2c[nH]c3ccccc23)NC(=O)[C@H](Cc2c[nH]c3ccccc23)NC(=O)[C@H](Cc2c[nH]c3ccccc23)NC(=O)[C@H](Cc2c[nH]c3ccccc23)NC(=O)[C@H](CCCNC(=N)N)NC1=O [[R4W4]] (cyclo(RRRRWWWW))
final [R4W4] concentration at which growth was achieved at the end of serial passage (MRSA USA300; MRSA USA300, 35 passages, stepwise increasing concentration): 32 µg/mL
MIC against serial passaged [R4W4]-resistant isolate (MRSA USA300; MRSA USA300 after serial passage in [R4W4], MIC in duplicate): 16 µg/mL (≈ 11.7 µM)
MIC against index isolate (no serial passage) (MRSA USA300; MRSA USA300 index strain, MIC in duplicate): 4 µg/mL (≈ 2.92 µM)
MBC (B. subtilis 21332; 21332, 24 h): 8 µg/mL (≈ 5.84 µM)
MIC (B. subtilis 21332; 21332, 24 h): 4 µg/mL (≈ 2.92 µM)
MBC/MIC (B. subtilis 21332; B. subtilis ATCC 21332): 2
% Reduction in viable bacteria (MRSA LAC [1]; 1 × MIC, 100 × (1 − 10^−LR)): 99.67%
% Reduction in viable bacteria (MRSA LAC [1]; 2 × MIC): 99.78%
Lethal rate (LR), log10 reduction (MRSA LAC [1]; 2 × MIC): 2.65
% Reduction in viable bacteria (MRSA LAC [1]; 4 × MIC): 99.87%
Lethal rate (LR), log10 reduction (MRSA LAC [1]; 4 × MIC): 2.89
viable bacteria at 26 h (MRSA LAC [1]; MRSA LAC, 4 × MIC, 26 h): bacteria remaining viable up to 26 h
% reduction in viable bacteria over 1 × MIC, 2 × MIC and 4 × MIC (MRSA LAC [1]; MRSA in MHB, range over the three concentrations): 99.67–99.87%
MIC in the presence of sodium chloride (MRSA LAC [2]; LAC): 6 to 8 µg/mL
MIC under normal physiological conditions (MRSA LAC [2]; MRSA LAC, MHB without added salt): 4 µg/mL
MIC in the presence of ferric chloride (MRSA LAC [2]; MRSA LAC, FeCl3 1, 2, 4 and 8 μM): increases proportionally with the concentration of ferric chloride
MBC/MIC [3]: 4
MIC range, MRSA clinical isolates from the blood ([4]; 24 h): 2 to 4 µg/mL
MIC range, MRSA clinical isolates from the lungs ([4]; 24 h): 16 to 32 µg/mL
bacteriostatic or bactericidal (Pankey's definition, MBC/MIC ≤ 4 bactericidal) ([4]; all tested bacterial isolates): bactericidal
MBC increase over MIC values ([4]; all the strains tested): 2–4 fold
MBC/MIC (MRSA Mec III; MRSA Mec III, wound isolate): 2
MBC (MRSA Mec III; Mec III, 24 h): 8 µg/mL (≈ 5.84 µM)
MIC (MRSA Mec III; Mec III, 24 h): 4 µg/mL (≈ 2.92 µM)
MBC (MRSA Clin 5; Clin 5, 24 h): 32 µg/mL (≈ 23.4 µM)
MIC (MRSA Clin 5; Clin 5, 24 h): 16 µg/mL (≈ 11.7 µM)
MBC/MIC (MRSA Clin 5; MRSA Clin 5, lung isolate): 2
MBC/MIC (MRSA Mec IV; MRSA Mec IV, lung isolate): 2
MBC (MRSA Mec IV; Mec IV, 24 h): 64 µg/mL (≈ 46.7 µM)
MIC (MRSA Mec IV; Mec IV, 24 h): 32 µg/mL (≈ 23.4 µM)
MBC/MIC (MRSA Mec V; MRSA Mec V, wound isolate): 4
MBC (MRSA Mec V; Mec V, 24 h): 64 µg/mL (≈ 46.7 µM)
MIC (MRSA Mec V; Mec V, 24 h): 16 µg/mL (≈ 11.7 µM)
MBC (MRSA Clin 6; Clin 6, 24 h): 32 µg/mL (≈ 23.4 µM)
MIC (MRSA Clin 6; Clin 6, 24 h): 32 µg/mL (≈ 23.4 µM)
MBC/MIC (MRSA Clin 6; MRSA Clin 6, lung isolate): 1
MBC/MIC ([5]; MRSA MU3, lung isolate): 2
MBC ([5]; MRSA MU3, lung isolate, averages of triplicates of three different experiments): 32 µg/mL (≈ 23.4 µM)
MIC ([5]; vancomycin hetero-non-susceptible) MU3, 24 h): 16 µg/mL (≈ 11.7 µM)
MBC/MIC (MRSA Mec II; MRSA Mec II, blood isolate): 2
MBC (MRSA Mec II; Mec II, 24 h): 8 µg/mL (≈ 5.84 µM)
MIC (MRSA Mec II; Mec II, 24 h): 4 µg/mL (≈ 2.92 µM)
MBC (MRSA LAC [6]; LAC, 24 h): 16 µg/mL (≈ 11.7 µM)
MBC/MIC (MRSA LAC [6]; MRSA LAC, wound isolate): 4
MBC/MIC (MRSA Mec 1; MRSA Mec 1, blood isolate): 2
MBC (MRSA Mec 1; Mec 1, 24 h): 4 µg/mL (≈ 2.92 µM)
MIC (MRSA Mec 1; Mec 1, 24 h): 2 µg/mL (≈ 1.46 µM)
